Measurements taken from publication PMC8049364, “Quantification of Macrophage-Driven Inflammation During Myocardial Infarction with ^18F-LW223, a Novel TSPO Radiotracer with Binding Independent of the rs6971 Human Polymorphism” (Journal of Nuclear Medicine, 2021).

Assays:
TSPO = biological target: T1, TSPO (Rattus norvegicus, UniProt P16257); test: PET/CT imaging and kinetic modelling in rat MI model, day 7; type: in vivo; parameters: k4 (2T analysis), mean / K1 (2T analysis), mean / k2 (2T analysis), mean / k3 (2T analysis), mean: unit not given here; settings: for K1 (2T analysis), mean / VT (2T analysis), mean / k2 (2T analysis), mean / k3 (2T analysis), mean / k3/k4 (2T analysis), mean / k4 (2T analysis), mean: MI n = 9
T1 construct: Thirty-three adult male Sprague–Dawley rats; from tissue; host or cells: living adult male Sprague-Dawley rats; heart, LV anterior wall, lung and brain VOIs
Method: For MI studies, anesthesia was induced and maintained using isoflurane (0.5%–3% in oxygen, 1 L/min) before buprenorphine (0.05 mg/kg; Alstoe Ltd.) was administered preoperatively for analgesia. Tracheal intubation was achieved under direct vision, and ventilation was maintained with a rodent ventilator (model 683 [Harvard Apparatus]; tidal volume, 2.5 cm^3; respiratory rate, 60/min). MI was induced as we have previously described ([18]), and further details can be found in the supplemental materials. Animals were imaged within 1 d of day 7 after MI, referred to as day 7 throughout the article.
Thirty-two PET scans were performed with ^18F-LW223 (17.8 ± 1.5 MBq, intravenous bolus, mean ± SEM). Naïve and MI rat scans were acquired immediately after intravenous bolus injection of ^18F-LW223. […] Dosimetry studies were conducted using mice and 240-min PET scans.
Reconstructed scans were imported into PMOD, version 3.8 (PMOD Technologies). Volumes of interest (VOIs) were manually drawn around the brain, heart, and lung using CT images. To sample the infarct area (or an equivalent area in naïve hearts), averaged PET images (0–120 min) were used to place 3 spheric VOIs at the center of the infarct territory within the ventricular wall (1.5 mm^3). […] Time–activity curves were generated, and SUVs were calculated as concentration in the VOI divided by injected dose divided by animal weight. Kinetic modeling was performed using the 2-tissue-compartment model to estimate the kinetic rate constants K1–k4 and the total volume of distribution (VT) in different tissues. Blood volume fraction (VB) was not modeled in this study. Two-tissue-compartment modeling was selected as the preferred model on the basis of a comparison of goodness and robustness of fitting versus several other models (Supplemental Fig. 3; Supplemental Table 2). The binding potential relative to nondisplaceable volume (BPND) was defined as k3/k4 ([19]). The transfer-corrected BPND, termed BPTC, was formulated as follows:Eq. 1 BPTC=k3/k4÷K1, […]
where k3 is the radiotracer association rate with specific binding, k4 is the dissociation rate constant of target ligand, and K1 is the rate constant for transfer from arterial plasma to tissues. When tissue blood flow is impaired, such as after MI, K1→blood flow, as per the Renkin–Crone equation:Eq. 2 K1=F×E=F (1−e^− PS/F), […]
(§1) Invasive Input Function Measurement
Polyethylene catheters (PE50) filled with heparinized saline (20 IU/mL) were inserted into the left femoral artery and vein with the help of a stereomicroscope and securely fastened with ligatures (6-0 silk thread). Catheters were held in place with […]
Rat Myocardial Infarction Procedure
Briefly, the skin was incised at the level of the left third and fourth ribs where the pectoral muscles were divided and retracted. Left lateral thoracotomy was then performed. With minimal handling, the pericardium was ruptured and the heart gently exteriorized from the thorax, and a nonabsorbable 5-0 ligature was placed around the left anterior descending coronary artery just above the bifurcation of the first diagonal and maneuvered back into position. Before wound closure, a drain was inserted to assist with removal of air and fluid from the thorax. Once removed, the wound was then closed in three layers. Animals were recovered and extubated once spontaneous ventilation was established, housed at 30 °C for 24 hours and given sterile sodium chloride 0.9% 0.01 mL/g fluid therapy subcutaneously in addition to another dose of Buprenorphine. After 24 hours, normal housing conditions were resumed.
(§2) Radiometabolite Blood and Tissue Processing and Analysis
(§3) All blood samples were 1 mL each and manually collected from different animals to generate a population curve, in order to respect total blood volume limits for terminal arterial blood collections in rats. Following blood and tissue collection, all samples were […]

[1] = Radiometabolite analysis of blood and tissue in naïve rats; type: in vivo, rat; settings: for Parent fraction: population curve
Method: Arterial blood samples were collected at 2, 5, 10, 20, 30, 60, and 120 min after radiotracer injection (69.7 ± 9.1 MBq [mean ± SEM], n = 17 rats), and heart, lung, and brain tissue samples were collected at 60 and 120 min. Blood and tissues were processed as detailed in the supplemental materials.
as §1
Polyethylene catheters (PE50) filled with heparinized saline (20 IU/mL) were inserted into the left femoral artery and vein with the help of a stereomicroscope and securely fastened with ligatures (6-0 silk thread). […]
as §2, §3
kept on ice until analyzed. Radioactivity in whole blood and plasma, as well as homogenized tissue samples, was assessed using a well-type γ-counter using a 400– 1400 keV window (Perkin Elmer Wizzard2, USA). Plasma samples (400 μl) and tissue samples (500 μl) were processed by acetonitrile denaturation (1:1.4 v/v) and analyzed by HPLC (Ultimate2000, ThermoFisher, UK) on a Luna C18(2) 10×250 mm, 10 μm column (Phenomenex, UK) with acetonitrile/water 70/30 and flow rate of 4 mL/min to estimate the […]
parent fraction. […]

K1 (2T analysis), mean (TSPO; Brain): 0.17 | VT (2T analysis), mean (TSPO; Brain): 2.21 | k2 (2T analysis), mean (TSPO; Brain): 0.19 | k3 (2T analysis), mean (TSPO; Brain): 0.023 | k3/k4 (2T analysis), mean (TSPO; Brain): 1.42 | k4 (2T analysis), mean (TSPO; Brain): 0.02 | K1 (2T analysis), mean (TSPO; Global Heart): 0.58 | VT (2T analysis), mean (TSPO; Global Heart): 12.57 | k2 (2T analysis), mean (TSPO; Global Heart): 0.36 | k3 (2T analysis), mean (TSPO; Global Heart): 0.04 | k3/k4 (2T analysis), mean (TSPO; Global Heart): 6.62 | k4 (2T analysis), mean (TSPO; Global Heart): 0.01 | K1 (2T analysis), mean (TSPO; LV Anterior Wall): 0.25 | VT (2T analysis), mean (TSPO; LV Anterior Wall): 13.62 | k2 (2T analysis), mean (TSPO; LV Anterior Wall): 0.18 | k3 (2T analysis), mean (TSPO; LV Anterior Wall): 0.025 | k3/k4 (2T analysis), mean (TSPO; LV Anterior Wall): 7.92 | k4 (2T analysis), mean (TSPO; LV Anterior Wall): 0.01 | K1 (2T analysis), mean (TSPO; Lung): 1.08 | VT (2T analysis), mean (TSPO; Lung): 10.43 | k2 (2T analysis), mean (TSPO; Lung): 0.39 | k3 (2T analysis), mean (TSPO; Lung): 0.046 | k3/k4 (2T analysis), mean (TSPO; Lung): 2.49 | k4 (2T analysis), mean (TSPO; Lung): 0.02 | BPTC (TSPO; MI cohort, infarct territory of anterior wall, 7 d after MI): 32.7 ± 5.0 cm^3/mL/min | reduction of K1 in LV anterior wall, MI vs naïve (TSPO; rat, in vivo): 3.6 fold | reduction of k2 in LV anterior wall, MI vs naïve (TSPO; rat, in vivo): 1.4 fold | Parent fraction ([1]; 2 min): 0.95 | Parent fraction ([1]; 5 min): 0.82 | Parent fraction ([1]; 10 min): 0.81 | Parent fraction ([1]; 20 min): 0.81 | Parent fraction ([1]; 30 min): 0.77 | Parent fraction ([1]; 120 min): 0.69 | radiometabolites in brain, heart, and lung ([1]; rat, 60 and 120 min after administration): less than 12.7% | plasma to whole blood ratio ([1]; used for input function correction): 1.84
SMILES: CC[C@@H](C)N(C)C(=O)c1nc2ccccc2c(-c2ccccc2)c1C[18F] [^18F-LW223]
